These results are taken from US8410292B2, “Epoxy-guaiane derivatives and treatment of cancer” (The United States of America, as represented by the …, priority 2008, dated 2013).

One experiment relates to SF-295. Nature of the experiment: 2-day cell growth assay, SF-295. It is filed as cell-based, human. The protocol: (§1) The primary endpoints of these assays are the formazan XTT, or alternatively, and in preference, the protein stain sulforhodamine B. All samples are tested in […] 10-fold dilutions with no drug and no-cell controls on each microtiter plate. IC50 values are calculated using SOFTMAX™ software as supplied by the manufacturer of the microplate reader.

Experiment [1] concerns UO-31. The experiment in a line: 2-day cell growth assay, UO-31. It is filed as cell-based, human. The protocol:
as §1

The next experiment deals with 786-0. Nature of the experiment: NCI 60-cell line protocol, 786-0. The experiment is classed as cell-based, human. The note with it: two days exposure, SRB endpoint. As for the experimental part:
(§2) Samples are tested in the standard National Cancer Institute 60-cell line protocol. First, they are tested against all 60 cell lines in a single final concentration of 10 micromolar. Then, they are separately tested in five 10-fold dilutions. The drug exposure is two days, with an SRB endpoint.

Another experiment deals with A498. Nature of the experiment: NCI 60-cell line protocol, A498. Particulars: two days exposure, SRB endpoint. The experiment is classed as cell-based, human. The protocol: as §2
A further experiment deals with ACHN. Nature of the experiment: NCI 60-cell line protocol, ACHN. The experiment is classed as cell-based, human. The note with it: two days exposure, SRB endpoint. As for the experimental part: as §2
For the next experiment, the system named is CAKI-1. The experiment in a line: NCI 60-cell line protocol, CAKI-1. The experiment is classed as cell-based, human. Particulars: two days exposure, SRB endpoint. The protocol: as §2
The subject of the next experiment is RXF-393. Nature of the experiment: NCI 60-cell line protocol, RXF-393. The experiment is classed as cell-based, human. Particulars: two days exposure, SRB endpoint. The protocol:
as §2

For the next experiment, the system named is SN12C. The experiment in a line: NCI 60-cell line protocol, SN12C. The note with it: two days exposure, SRB endpoint. It is filed as cell-based, human. The protocol: as §2
A further experiment relates to TK-10. Nature of the experiment: NCI 60-cell line protocol, TK-10. The experiment is classed as cell-based, human. The note with it: two days exposure, SRB endpoint. The protocol: as §2
Experiment [2] deals with UO-31. The experiment in a line: NCI 60-cell line protocol, UO-31. It is filed as cell-based, human. The note with it: two days exposure, SRB endpoint. As for the experimental part:
as §2

The next experiment relates to renal cancer cell lines. The experiment in a line: NCI 60-cell line protocol, summary over renal lines. The experiment is classed as cell-based, human. As for the experimental part: as §2
The subject of the next experiment is all 60 cell lines. Nature of the experiment: NCI 60-cell line protocol, all 60 lines. The experiment is classed as cell-based, human. Particulars: mean over all 60 cell lines, read-out: All 60 mean GI-50. The protocol:
as §2

In experiment [3] the test system is renal cancer cell line A498. The experiment in a line: 2-cell assay. The experiment is classed as cell-based. The protocol:
A sample ([…]) of englerin B was stirred in pyridine (0.25 mL) and acetic anhydride (0.25 mL) overnight at room temperature. The solvents were evaporated under vacuum and the product extracted in dichloromethane. The crude product was purified on pTLC (Si gel 60 F254; 2% MeOH/DCM) to give englerin B monoacetate (2.0 mg, 95%).

The mark [4] stands for this setting: insensitive CNS tumor line, read-out: SF-295 IC50.
Where [5] appears, read: 2-day cell growth assay, sensitive renal line; read-out: UO-31 IC50.
Where [6] appears, read: ratio of IC50 SF-295 to IC50 UO-31.
Setting [7] is: geometric mean over renal cell lines, read-out: Geometric Mean GI50.
Setting [8] is: mean over renal cell lines, read-out: Mean GI50.
[9] abbreviates: median over renal cell lines, read-out: Median GI50.
Setting [10] is: Homo sapiens, SF-295, 48 h, insensitive CNS tumor line, read-out: SF-295 IC50.
The mark [11] stands for this setting: Homo sapiens, UO-31, 48 h, 2-day cell growth assay, sensitive renal line; read-out: UO-31 IC50.

As a reminder, the IC50 is the concentration needed to halve the response being measured.

Like-named read-outs stand apart in the source and are kept apart here.

Take `CC(C)[C@@]12C[C@@H](OC(=O)CO)[C@@](C)(O1)[C@@H]1CC[C@@H](C)[C@H]1[C@@H]2OC(=O)/C(Cl)=C/c1ccccc1` [2′-Chloroenglerin A]: the IC50 was 72 µM with SF-295 (setting [4]) and 0.92 µM with UO-31 [1] (setting [5]). Also, in the experiment with UO-31 [1] (setting [6]), the “Selectivity SF-295/UO-31” value is on record as 78. The GI50 amounted to 10 µM in the experiment on 786-0; 0.028 µM in the experiment with A498; 0.041 µM with ACHN; 0.035 µM in the experiment with CAKI-1; 0.019 µM with RXF-393; 0.56 µM in the experiment with SN12C. The GI50 came out at 21 µM with TK-10; 0.035 µM with UO-31 [2]; 0.21 µM with renal cancer cell lines (setting [7]); 3.96 µM with renal cancer cell lines (setting [8]); 0.04 µM in the experiment on renal cancer cell lines (setting [9]); 5.6 µM in the experiment on all 60 cell lines.
Take `CC1CCC2C1C(OC(=O)C(Cl)C(O)c1ccccc1)C1(C(C)C)CC(OC(=O)CO)C2(C)O1` (single isomer, unassigned) [2′-Chloro,3′-hydroxydihydroenglerin (epimer 1), 2′-Chloro,3′-hydroxydihydroenglerin A (epimer 1)]: the concentration for half-maximal inhibition (IC50) in the experiment on SF-295 (read-out: SF-295 IC50, insensitive CNS tumor line) was more than 100 µM; in the experiment on UO-31 [1] (read-out: UO-31 IC50; 2-day cell growth assay, sensitive renal line), 0.96 µM. For the same compound, the “Selectivity SF-295/UO-31” value with UO-31 [1] (setting [6]) is given as more than 104. Further, the GI50 with 786-0 came to 1.7 µM; in the experiment on A498, 0.18 µM; with ACHN, 0.32 µM; in the experiment on CAKI-1, 0.46 µM; in the experiment on RXF-393 (Homo sapiens, RXF 393, 48 h) it was 0.51 µM; with SN12C it was 0.63 µM. The GI50 in the experiment on TK-10 (Homo sapiens, TK-10, 48 h) was 17 µM; with UO-31 [2], 0.25 µM; in the experiment on renal cancer cell lines (setting [7]), 0.7 µM; in the experiment on renal cancer cell lines (setting [8]), 2.58 µM; with renal cancer cell lines (setting [9]), 0.49 µM; in the experiment on all 60 cell lines (Homo sapiens, 60 cell), 6.9 µM.
For the compound `CC1CCC2C1C(OC(=O)C(Cl)C(O)c1ccccc1)C1(C(C)C)CC(OC(=O)CO)C2(C)O1` (single isomer, unassigned) [2′-Chloro,3′-hydroxydihydroenglerin (epimer 3), 2′-Chloro,3′-hydroxydihydroenglerin A (epimer 3)], the figures for the 50% inhibitory concentration (IC50) in the experiment on SF-295 (setting [4]) and in the experiment with UO-31 [1] (setting [5]) were 42 µM and 0.41 µM, respectively. The “Selectivity SF-295/UO-31” value with UO-31 [1] (setting [6]) amounted to 102.
With englerin B monoacetate, in experiment [3], the “selectivity against renal cancer cell line A498” value is recorded as approximately 400 fold.
For `CCOC(c1ccccc1)C(Cl)C(=O)OC1C2C(C)CCC2C2(C)OC1(C(C)C)CC2OC(=O)CO` (stereo not drawn) [2′-Chloro,3′-ethoxydihydroenglerin A], the values for the IC50 with SF-295 (setting [10]) and in the experiment with UO-31 [1] (setting [11]) were 35 µM and 18 µM, respectively. In addition, the “Selectivity SF-295/UO-31” value with UO-31 [1] (setting [6]) is given as 1.94.
Take `CC1CCC2C1C(OC(=O)C(Cl)C(Cl)c1ccccc1)C1(C(C)C)CC(OC(=O)CO)C2(C)O1` (single isomer, unassigned) [2′,3′-Dichlorodihydroenglerin A (epimer 2)]: the results for the 50% inhibitory concentration (IC50) in the experiment on SF-295 (setting [4]) and with UO-31 [1] (setting [5]) were 60 µM and 0.75 µM, respectively. Besides, the “Selectivity SF-295/UO-31” value in the experiment on UO-31 [1] (setting [6]) came out at 80. Also, the GI50 in the experiment on 786-0 stood at 12 µM; with A498, 0.049 µM; in the experiment on ACHN it was 0.32 µM; in the experiment with CAKI-1, 0.32 µM; with RXF-393, 0.32 µM; in the experiment on SN12C, 1 µM. For the same compound, the GI50 came to 25 µM in the experiment on TK-10; 0.72 µM in the experiment on renal cancer cell lines (setting [7]); 5.55 µM in the experiment on renal cancer cell lines (setting [8]); 0.32 µM with renal cancer cell lines (setting [9]); 11.7 µM in the experiment with all 60 cell lines.
For the compound `CC1CCC2C1C(OC(=O)C(Cl)C(O)c1ccccc1)C1(C(C)C)CC(OC(=O)CO)C2(C)O1` (single isomer, unassigned) [2′-Chloro,3′-hydroxydihydroenglerin (epimer 2), 2′-Chloro,3′-hydroxydihydroenglerin A (epimer 2)], the IC50 worked out at 92 µM in the experiment on SF-295 (setting [4]) and 8.7 µM in the experiment on UO-31 [1] (setting [5]). Also, the “Selectivity SF-295/UO-31” value in the experiment with UO-31 [1] (setting [6]) is on record as 11. Besides, the GI50 amounted to 11 µM with 786-0; 0.66 µM with A498; 1.38 µM with ACHN; 9.3 µM with CAKI-1; 0.39 µM with RXF-393; 4.7 µM in the experiment with SN12C. Further, the GI50 in the experiment on TK-10 is 27 µM; with UO-31 [2], 1.9 µM; in the experiment on renal cancer cell lines (setting [7]) it was 3.13 µM; with renal cancer cell lines (setting [8]), 7.07 µM; in the experiment on renal cancer cell lines (setting [9]) it was 3.32 µM; with all 60 cell lines, 12 µM.
In the case of `CC1CCC2C1C(OC(=O)C(Cl)C(Cl)c1ccccc1)C1(C(C)C)CC(OC(=O)CO)C2(C)O1` (single isomer, unassigned) [2′,3′-Dichlorodihydroenglerin A (epimer 1)], the IC50 with SF-295 (setting [10]) was found to be 90 µM; with UO-31 [1] (setting [11]), 1.2 µM. In addition, in the experiment on UO-31 [1] (setting [6]), the “Selectivity SF-295/UO-31” value worked out at 75. The GI50 came to 12 µM with 786-0 (Homo sapiens, 786-0, 48 h); 0.14 µM in the experiment on A498; 0.14 µM with ACHN; 0.42 µM in the experiment with CAKI-1 (Homo sapiens, CAKI-1, 48 h); 0.93 µM in the experiment with RXF-393; 1 µM in the experiment with SN12C (Homo sapiens, SN12C, 48 h). For the same compound, the GI50 is 18 µM with TK-10 (Homo sapiens, TK-10, 48 h); 0.39 µM in the experiment on UO-31 [2] (Homo sapiens, UO-31, 48 h); 0.94 µM with renal cancer cell lines (Homo sapiens, 60 cell, geometric mean over renal cell lines, read-out: Geometric Mean GI50); 4.09 µM in the experiment on renal cancer cell lines (Homo sapiens, 60 cell, mean over renal cell lines, read-out: Mean GI50); 0.68 µM in the experiment with renal cancer cell lines (setting [9]); 8.3 µM with all 60 cell lines (Homo sapiens, 60 cell).
As to `CC1CCC2C1C(OC(=O)C(Cl)C(O)c1ccccc1)C1(C(C)C)CC(OC(=O)CO)C2(C)O1` (single isomer, unassigned) [2′-Chloro,3′-hydroxydihydroenglerin (epimer 4), 2′-Chloro,3′-hydroxydihydroenglerin A (epimer 4)], the values for the IC50 with SF-295 (setting [4]) and in the experiment on UO-31 [1] (setting [5]) were 20 µM and 16 µM, respectively. Besides, the “Selectivity SF-295/UO-31” value with UO-31 [1] (setting [6]) worked out at 1.25.
